Laboratory results: patent US20250179032A1, “HETEROCYCLIC INHIBITORS OF GLUT9 FOR TREATMENT OF DISEASE” (HORIZON THERAPEUTICS IRELAND DAC, priority 2022, published 2025)

Target: T1, H. sapiens SLC2A9 variant 2 (GLUT9B) (Homo sapiens, UniProt Q9NRM0)
T1 sequence (Q9NRM0 1-511 isoform Q9NRM0-2): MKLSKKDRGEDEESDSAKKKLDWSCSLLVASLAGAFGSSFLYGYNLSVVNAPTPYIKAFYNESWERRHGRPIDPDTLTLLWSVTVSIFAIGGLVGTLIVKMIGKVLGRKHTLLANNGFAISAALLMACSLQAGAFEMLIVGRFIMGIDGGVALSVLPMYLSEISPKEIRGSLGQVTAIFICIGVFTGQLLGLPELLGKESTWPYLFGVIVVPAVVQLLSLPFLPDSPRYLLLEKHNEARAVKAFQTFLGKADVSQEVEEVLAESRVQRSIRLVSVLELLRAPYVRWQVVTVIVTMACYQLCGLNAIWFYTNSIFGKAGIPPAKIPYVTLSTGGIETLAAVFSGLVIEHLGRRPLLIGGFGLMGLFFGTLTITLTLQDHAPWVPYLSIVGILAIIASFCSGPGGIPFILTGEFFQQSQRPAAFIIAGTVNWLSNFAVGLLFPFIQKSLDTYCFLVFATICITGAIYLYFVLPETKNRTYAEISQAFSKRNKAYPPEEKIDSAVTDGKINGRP
Assay: GLUT9 functional assay: uric acid uptake in HEK293T cells, allantoin formation by MS/MS as proxy of GLUT9B inhibition
Type: cell-based
Details: 15 minute assay; HEK293T cells stably expressing GLUT9B and transiently A. oryzae uricase; uric acid 0.3 mM, 37° C.; read-out: 15 min IC50
Procedure, shortened: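 HEK293T cells stably expressing human GLUT9B and transiently expressing A. oryzae uricase, exposed across a 12-point curve to 0.3 mM uric acid (Km) in sodium gluconate buffer pH 7.4 for 15 or 60 min at 37° C. Allantoin in lysates quantified by RapidFire MS/MS (positive ion) against a matrix-matched standard curve as proxy for uptake.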

| IC50 [nM] | SMILES |
| --- | --- |
| < 500 | O=C(O)C1CCN(c2nc(CCCOC(F)(F)F)cnc2-c2ccc3occc3c2)CC1 [Compound 151, 1-(3-(benzofuran-5-yl)-6-(3-(trifluoromethoxy)propyl)pyrazin-2-yl)piperidine-4-carboxylic acid] |
| < 500 | O=C(O)C1CCN(c2nc(CCC(F)(F)F)cnc2-c2ccc(OCC3CC3)cc2)CC1 [Compound 152, 1-(3-(4-(cyclopropylmethoxy)phenyl)-6-(3,3,3-trifluoropropyl)pyrazin-2-yl)piperidine-4-carboxylic acid] |
| < 500 | O=C(O)C1CCN(c2nc(CCCCC(F)(F)F)cnc2-c2ccc(OCC3CC3)cc2)CC1 [Compound 153, 1-(3-(4-(cyclopropylmethoxy)phenyl)-6-(5,5,5-trifluoropentyl)pyrazin-2-yl)piperidine-4-carboxylic acid] |
| 500 to 2000 | O=C(O)C1CCN(c2nc(CCC(F)(F)C(F)(F)F)cnc2-c2ccc(OCC3CC3)cc2)CC1 [Compound 154, 1-(3-(4-(cyclopropylmethoxy)phenyl)-6-(3,3,4,4,4-pentafluorobutyl)pyrazin-2-yl)piperidine-4-carboxylic acid] |
| > 2000 | COCCOc1ccc(-c2ncc(CC(COC)COC)nc2N2CCC(C(=O)O)CC2)cc1 [Compound 155, 1-(6-(3-methoxy-2-(methoxymethyl)propyl)-3-(4-(2-methoxyethoxy)phenyl)pyrazin-2-yl)piperidine-4-carboxylic acid] |
| > 2000 | COCC(COC)Cc1cnc(-c2ccc(OCC3CC3)cc2)c(N2CCC(C(=O)O)CC2)n1 [Compound 156, 1-(3-(4-(cyclopropylmethoxy)phenyl)-6-(3-methoxy-2-(methoxymethyl)propyl)pyrazin-2-yl)piperidine-4-carboxylic acid] |
| < 500 | O=C(O)C1CCN(c2nc(CCCC(F)(F)F)cnc2-c2ccc(OC(F)(F)F)cc2)CC1 [Compound 157, 1-(6-(4,4,4-trifluorobutyl)-3-(4-(trifluoromethoxy)phenyl)pyrazin-2-yl)piperidine-4-carboxylic acid] |
| 500 to 2000 | O=C(O)C1CCN(c2nc(CCCC(F)(F)F)cnc2-c2ccc(C(F)(F)F)cc2)CC1 [Compound 158, 1-(6-(4,4,4-trifluorobutyl)-3-(4-(trifluoromethyl)phenyl)pyrazin-2-yl)piperidine-4-carboxylic acid] |
| 500 to 2000 | O=C(O)C1CCN(c2nc(CCCC(F)(F)F)cnc2-c2ccc(OC(F)F)cc2)CC1 [Compound 159, 1-(3-(4-(difluoromethoxy)phenyl)-6-(4,4,4-trifluorobutyl)pyrazin-2-yl)piperidine-4-carboxylic acid] |
| 500 to 2000 | O=C(O)C1CCN(c2nc(CCCC(F)(F)F)cnc2-c2ccc3c(c2)OC(F)(F)O3)CC1 [Compound 160, 1-(3-(2,2-difluorobenzo[d][1,3]dioxol-5-yl)-6-(4,4,4-trifluorobutyl)pyrazin-2-yl)piperidine-4-carboxylic acid] |
| 500 to 2000 | O=C(O)C1CCN(c2nc(CCC(F)(F)F)cnc2-c2ccc(OC(F)(F)F)cc2)CC1 [Compound 161, 1-(3-(4-(trifluoromethoxy)phenyl)-6-(3,3,3-trifluoropropyl)pyrazin-2-yl)piperidine-4-carboxylic acid] |
| 500 to 2000 | O=C(O)C1CCN(c2nc(CCC(F)(F)F)cnc2-c2ccc(C(F)(F)F)cc2)CC1 [Compound 162, 1-(3-(4-(trifluoromethyl)phenyl)-6-(3,3,3-trifluoropropyl)pyrazin-2-yl)piperidine-4-carboxylic acid] |
| 500 to 2000 | O=C(O)C1CCN(c2nc(CCC(F)(F)F)cnc2-c2ccc(OC(F)F)cc2)CC1 [Compound 163, 1-(3-(4-(difluoromethoxy)phenyl)-6-(3,3,3-trifluoropropyl)pyrazin-2-yl)piperidine-4-carboxylic acid] |
| 500 to 2000 | O=C(O)C1CCN(c2nc(CCC(F)(F)F)cnc2-c2ccc3c(c2)OC(F)(F)O3)CC1 [Compound 164, 1-(3-(2,2-difluorobenzo[d][1,3]dioxol-5-yl)-6-(3,3,3-trifluoropropyl)pyrazin-2-yl)piperidine-4-carboxylic acid] |
| < 500 | O=C(O)C1(O)CCN(c2nc(CCCC(F)(F)F)cnc2-c2cc(F)c3occc3c2)CC1 [Compound 165, 1-(3-(7-fluorobenzofuran-5-yl)-6-(4,4,4-trifluorobutyl)pyrazin-2-yl)-4-hydroxypiperidine-4-carboxylic acid] |
| 500 to 2000 | O=C(O)C1(O)CCN(c2nc(CCCC(F)(F)F)cnc2-c2ccc3c(c2)OCO3)CC1 [Compound 166, 1-(3-(benzo[d][1,3]dioxol-5-yl)-6-(4,4,4-trifluorobutyl)pyrazin-2-yl)-4-hydroxypiperidine-4-carboxylic acid] |
| > 2000 | COCCOc1ccc(-c2ncc(CCCC(F)(F)F)nc2N2CCC(O)(C(=O)O)CC2)cc1 [Compound 167, 4-hydroxy-1-(3-(4-(2-methoxyethoxy)phenyl)-6-(4,4,4-trifluorobutyl)pyrazin-2-yl)piperidine-4-carboxylic acid] |
| < 500 | COCCCc1cnc(-c2cc(F)c3occc3c2)c(N2CCC(C(=O)O)CC2)c1 [Compound 168, 1-(2-(7-Fluorobenzofuran-5-yl)-5-(3-Methoxypropyl)Pyridin-3-yl)piperidine-4-carboxylic acid] |
| < 500 | COCCCc1cnc(-c2cc(F)c3c(c2)OCO3)c(N2CCC(C(=O)O)CC2)c1 [Compound 169, 1-(2-(7-fluorobenzo[d][1,3]dioxol-5-yl)-5-(3-methoxypropyl)pyridin-3-yl)piperidine-4-carboxylic acid] |
| 500 to 2000 | COCCCc1cnc(-c2cnc3occc3c2)c(N2CCC(C(=O)O)CC2)c1 [Compound 170, 1-(2-(Furo[2,3-b]Pyridin-5-yl)-5-(3-Methoxypropyl)Pyridin-3-yl)piperidine-4-carboxylic acid] |
| > 2000 | COCCCc1cnc(-c2ccc3c(c2)OCO3)c(N2CCC(O)(C(=O)O)CC2)n1 [Compound 171, 1-(3-(benzo[d][1,3]dioxol-5-yl)-6-(3-methoxypropyl)pyrazin-2-yl)-4-hydroxypiperidine-4-carboxylic acid] |
| < 500 | COCCCc1cnc(-c2ccc3occc3c2)c(N2CCC(C(=O)O)CC2)n1 [Compound 172, 1-(3-(benzofuran-5-yl)-6-(3-Methoxypropyl)Pyrazin-2-yl)Piperidine-4-carboxylic acid] |
| < 500 | COCCCc1cnc(-c2cc(F)c3occc3c2)c(N2CCC(C(=O)O)CC2)n1 [Compound 173, 1-(3-(7-Fluorobenzofuran-5-yl)-6-(3-Methoxypropyl)Pyrazin-2-yl)piperidine-4-carboxylic acid] |
| 500 to 2000 | O=C(O)C1(O)CCN(c2nc(CCCC(F)(F)F)cnc2-c2ccc3occc3c2)CC1 [Compound 174, 1-(3-(benzofuran-5-yl)-6-(4,4,4-trifluorobutyl)pyrazin-2-yl)-4-hydroxypiperidine-4-carboxylic acid] |
| > 2000 | COCCCc1cnc(-c2ccc3occc3c2)c(N2CC(C(=O)O)C2)n1 [Compound 175, 1-(3-(benzofuran-5-yl)-6-(3-methoxypropyl)pyrazin-2-yl)azetidine-3-carboxylic acid] |
| > 2000 | COCCCc1cnc(-c2ccc3c(c2)OCO3)c(N2CC(C(=O)O)C2)n1 [Compound 176, 1-(3-(benzo[d][1,3]dioxol-5-yl)-6-(3-methoxypropyl)pyrazin-2-yl)azetidine-3-carboxylic acid] |
| < 500 | O=C(O)C1CCN(c2nc(CCCOCC(F)(F)F)cnc2-c2ccc3occc3c2)CC1 [Compound 177, 1-(3-(benzofuran-5-yl)-6-(3-(2,2,2-trifluoroethoxy)propyl)pyrazin-2-yl)piperidine-4-carboxylic acid] |

Same assay, conditions: 60 minute assay; HEK293T cells stably expressing GLUT9B and transiently A. oryzae uricase; uric acid 0.3 mM, 37° C.; read-out: 60 min IC50

| IC50 [nM] | SMILES |
| --- | --- |
| < 500 | COCCCc1cnc(-c2cc(F)c3occc3c2)c(N2CCC(C(=O)O)CC2)c1 [Compound 168, 1-(2-(7-Fluorobenzofuran-5-yl)-5-(3-Methoxypropyl)Pyridin-3-yl)piperidine-4-carboxylic acid] |
| > 2000 | COCCCc1cnc(-c2cnc3occc3c2)c(N2CCC(C(=O)O)CC2)c1 [Compound 170, 1-(2-(Furo[2,3-b]Pyridin-5-yl)-5-(3-Methoxypropyl)Pyridin-3-yl)piperidine-4-carboxylic acid] |
| < 500 | COCCCc1cnc(-c2ccc3occc3c2)c(N2CCC(C(=O)O)CC2)n1 [Compound 172, 1-(3-(benzofuran-5-yl)-6-(3-Methoxypropyl)Pyrazin-2-yl)Piperidine-4-carboxylic acid] |
| < 500 | COCCCc1cnc(-c2cc(F)c3occc3c2)c(N2CCC(C(=O)O)CC2)n1 [Compound 173, 1-(3-(7-Fluorobenzofuran-5-yl)-6-(3-Methoxypropyl)Pyrazin-2-yl)piperidine-4-carboxylic acid] |
| > 2000 | COCCCc1cnc(-c2ccc3occc3c2)c(N2CC(C(=O)O)C2)n1 [Compound 175, 1-(3-(benzofuran-5-yl)-6-(3-methoxypropyl)pyrazin-2-yl)azetidine-3-carboxylic acid] |
| 500 to 2000 | O=C(O)C1CCN(c2nc(CCCOCC(F)(F)F)cnc2-c2ccc3c(c2)OCO3)CC1 [Compound 178, 1-(3-(benzo[d][1,3]dioxol-5-yl)-6-(3-(2,2,2-trifluoroethoxy)propyl)pyrazin-2-yl)piperidine-4-carboxylic acid] |
| 500 to 2000 | COCCCc1cnc(-c2ccc3oc(COC)cc3c2)c(N2CCC(C(=O)O)CC2)n1 [Compound 179, 1-(3-(2-(methoxymethyl)benzofuran-5-yl)-6-(3-methoxypropyl)pyrazin-2-yl)piperidine-4-carboxylic acid] |
| < 500 | COCCCc1cnc(-c2ccc3occc3c2)c(N2CCC3(C(=O)O)CC2C3)n1 [Compound 181, 2-(3-(benzofuran-5-yl)-6-(3-methoxypropyl)pyrazin-2-yl)-2-azabicyclo[3.1.1]heptane-5-carboxylic acid] |
| > 2000 | COCCCc1cnc(-c2ccc3occc3c2)c(NC23CC(C(=O)O)(C2)C3)n1 [Compound 182, 3-((3-(benzofuran-5-yl)-6-(3-methoxypropyl)pyrazin-2-yl)amino)bicyclo[1.1.1]pentane-1-carboxylic acid] |
